Data published in patent US8993527B2, “Methods, compositions, and formulations for preventing or reducing adverse effects in a patient” (Pericor Therapeutics, Inc., priority 2005, dated 2015).
Counter-ions that a name gives are not always drawn.

Columns and labels:
[1] = molecular target: T1, NBTI-specific adenosine transport site (UniProt O54698); assay: [3H]-NBTI binding assay; settings: read-out: ED50 (50% displacement of bound [3H]-NBTI); 0.5 mg neuronal membrane protein, 0.5 nM [3H]-NBTI, 30 minutes
T1 sequence (O54698 1-457): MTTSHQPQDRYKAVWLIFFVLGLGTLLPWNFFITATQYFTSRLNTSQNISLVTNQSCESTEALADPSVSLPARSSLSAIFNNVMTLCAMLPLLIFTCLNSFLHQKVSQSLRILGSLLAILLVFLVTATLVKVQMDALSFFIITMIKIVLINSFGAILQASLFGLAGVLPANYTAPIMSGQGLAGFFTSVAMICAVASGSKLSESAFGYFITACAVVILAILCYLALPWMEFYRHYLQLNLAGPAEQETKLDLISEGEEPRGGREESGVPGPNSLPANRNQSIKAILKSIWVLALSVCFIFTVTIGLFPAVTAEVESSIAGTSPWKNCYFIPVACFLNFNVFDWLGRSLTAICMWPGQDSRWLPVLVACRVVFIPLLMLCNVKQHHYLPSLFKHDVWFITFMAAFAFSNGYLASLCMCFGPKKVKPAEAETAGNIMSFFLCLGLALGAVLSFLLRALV
Description: Increasing concentrations of the test compounds were incubated for 30 minutes with 0.5 mg neuronal membrane protein together with 0.5 nM [^3 H]-NBTI in a Tris buffer (pH 7.4) at room temperature. The assays were quenched and membranes collected by rapid filtration. Filters were then solubilized and radioactivity determined by scintillation counting.

[2] = test system: longitudinal muscle from the guinea pig ileum; assay: Inhibition of stimulated contraction in isolated ileum; settings: electrically stimulated guinea pig ileum muscle
Description: These are detailed in Table II.

[3] = test system: coronary endothelial cells; assay: Inhibition of adenosine utilization in cell culture; type: cell-based; settings: 1 μM [3H] adenosine, 15 minutes; for inhibition at 5 µM / inhibition at 50 µM: Endothelial cell
Description: In this assay, endothelial cells were incubated with 5 μM or 50 μM of the test compound together with 1 μM [^3H] adenosine for 15 minutes. Inhibition of adenosine utilization was determined by measuring the concentration of extracellular adenosine by scintillation counting following separation by thin layer chromatography (TLC).

[4] = test system: platelet aggregation in human whole blood; assay: Inhibition of platelet aggregation in human whole blood; type: cell-based; settings: 10 minutes at 37° C., 10 µM adenosine added, ADP (6-25 μM)
Description: Whole blood was drawn from healthy donors and collected in 0.1 vol. of sodium citrate to prevent coagulation. Platelet aggregation was measured by the impedance technique using a Whole Blood Aggregometer. The test compounds were incubated in whole blood for 10 minutes at 37° C. and 10 µM adenosine was added 5 minutes before eliciting aggregation. Aggregation was induced by addition of ADP (6-25 μM) at the minimum concentration inducing full aggregation in untreated controls.

Compound	EC50 [1] [µM]	inhibition at 5 µM ([3]; 5 μM) [%]	inhibition at 50 µM ([3]; 50 μM) [%]	further results
5-Amino-4-[1-[4-(4-nitrophenyl)]piperazinocarbamoyl]-1-1-β-D-ribofurano sylimidazole [Compound No. 60 (1-508)]	17	–	–	–
CN(C)c1ccc(CNC(=O)c2ncn([C@@H]3O[C@H](CO)[C@@H](O)[C@H]3O)c2N)cc1 [41 (1-396), 5-Amino-1-β-D-ribofuranosylimidazole-4-N(4-dimethylaminobenzyl)-carboxamide hydrochloride]	–	–	–	IC50 [2]: 100 µM
Nc1c(C(=O)NC[C@H](O)c2ccc(O)c(O)c2)ncn1[C@@H]1O[C@H](CO)[C@@H](O)[C@H]1O [42 (1-431), (R)-5-Amino-1-β-D-ribofuranosylimidazole-4-N-[2-hydroxy-2-(3,4-dihydroxyphenyl)ethyl]carboxamide]	–	–	–	IC50 [2]: 6 µM
Nc1c(C(=O)NCc2ccc([N+](=O)[O-])cc2)ncn1C1OC(CI)C(O)C1O [46 (1-445), 5-Amino-1-(5-iodo-5-deoxy-β-D-ribofuranosyl)imidazole-4-N-[(4-nitrophenyl)methyl]carboxamide]	8	19 ± 4	30 ± 9	–
CC(NC(=O)c1ncn(C2OC(CO)C(O)C2O)c1N)c1ccc([N+](=O)[O-])cc1 [49 (1-453), (R)-5-Amino-1-β-D-ribofuranosylimidazole 4-N-[1-4-nitrophenyl)ethyl]carboxamide]	7	30 ± 4	33 ± 8	–
CC(NC(=O)c1ncn(C2OC(CO)C(O)C2O)c1N)c1ccc([N+](=O)[O-])cc1 [50 (1-459), (S)-5-Amino-1-β-D-ribofuranosylimidazole-4-N-[(4-nitrophenyl)ethyl]carboxamide]	28	–	–	–
Nc1c(C(=O)NCc2ccc([N+](=O)[O-])cc2)ncn1C1OC(CO)C(O)C1O [Compound No. 23 (1-343), 5-Amino-1-β-D-ribofuranosyl-imidazole-4-N-[(4-nitrophenyl)methyl]carboxamide]	3	27 ± 4	63 ± 2	IC50 ([4]; Homo sapiens, Platelet, 10 min): 38 µM; IC50 ([2]; Cavia porcellus): 3 µM
Nc1c(C(=O)NCc2cccc(Cl)c2)ncn1[C@H]1O[C@H](CO)[C@@H](O)[C@H]1O [Compound No. 24 (1-354), 5-Amino-1-α-D-ribofuranosylimidazole-4-N-[(3-chlorophenyl)methyl]carboxamide]	–	–	–	IC50 [2]: 400 µM
Nc1c(C(=O)NCc2ccc(Cl)cc2Cl)ncn1C1OC(CO)C(O)C1O [Compound No. 25 (1-360), 5-amino-1-β-D-ribofuranosylimidazole-4-N-[(2,4-dichlorophenyl)methyl]carboxamide]	72	21 ± 1	56 ± 2	IC50 ([2]; Cavia porcellus): 20 µM
NC(=O)c1ncn([C@@H]2O[C@H](CCl)[C@@H](O)[C@H]2O)c1N [Compound No. 26 (1-332), 5-amino-1-(5-chloro-5-deoxy-β-D-ribofuranosyl)imidazole-4-carboxamide]	–	–	–	IC50 ([2]; Cavia porcellus): 200 µM
Nc1c(C(=O)NCc2cccc([N+](=O)[O-])c2)ncn1C1OC(CO)C(O)C1O [Compound No. 28 (1-348), 5-amino-1-β-D-ribofuranosylimidazole-4-N-[(3-nitrophenyl)methyl]carboxamide]	15	17 ± 3	47 ± 2	IC50 ([4]; Homo sapiens, Platelet, 10 min): 180 µM
Cc1ccc(CNC(=O)c2ncn(C3OC(CO)C(O)C3O)c2N)cc1 [Compound No. 30 (1-388), 5-amino-1-β-D-ribofuranosylimidazole-4-N-[(4-methylphenyl)methyl]carboxamide]	225	21 ± 1	49 ± 4	IC50 ([2]; Cavia porcellus): 20 µM
Nc1c(C(=O)NCc2cccc(Cl)c2)ncn1C1OC(CO)C(O)C1O [Compound No. 35 (1-355), 5-amino-1-β-D-ribofuranosyl-imidazole-4-N[(3-chlorophenyl)methyl]carboxamide]	–	–	–	IC50 ([2]; Cavia porcellus): 60 µM
COc1ccc(CNC(=O)c2ncn(C3OC(CO)C(O)C3O)c2N)cc1 [Compound No. 39 (1-390), 5-Amino-1-β-D-ribofuranosyl-imidazole-4-N-[p-methoxybenzyl]carboxamide]	600	7 ± 4	29 ± 1	IC50 ([2]; Cavia porcellus): 500 µM
NC(=O)c1nc(Sc2ccccc2)n([C@@H]2O[C@H](CO)[C@@H](O)[C@H]2O)c1N [Compound No. 43 (1-432), 5-Amino-2-thiophenyl-1-β-D-ribofuranosylimidazole-4-carboxamide]	71	–	–	IC50 [4]: 620 µM; IC50 [2]: 200 µM
Nc1c(C(=O)NCc2cccc(I)c2)ncn1C1OC(CO)C(O)C1O [Compound No. 44 (1-434), 5-Amino 1-β-D-ribofuranosyl-imidazole-4-N-[(3-iodophenyl)methyl]carboxamide]	–	–	–	IC50 ([2]; Cavia porcellus): 20 µM
Nc1c(C(=O)NC2CC3CCC2C3)ncn1C1OC(CO)C(O)C1O [Compound No. 45 (1-438), 5-Amino-1-β-D-ribofuranosylimidazole-4-N-(2-endo-norbornyl)carboxamide]	90	–	–	IC50 ([2]; Cavia porcellus): 100 µM
Nc1c(C(=O)N2CCc3ccccc32)ncn1C1OC(CO)C(O)C1O [Compound No. 48 (1-452), 5-Amino-1-β-D-ribofuranosyl-imidazole-4-N-indolinylcarboxamide]	22	23 ± 3	25 ± 2	–
[N-]=[N+]=NCC1OC(n2cnc(C(=O)NCc3ccc(Cl)cc3)c2N)C(O)C1O (stereo not shown) [Compound No. 52 (1-467)]	–	–	–	IC50 ([4]; Homo sapiens, Platelet, 10 min): 480 µM
CSC[C@H]1O[C@@H](n2cnc(C(N)=O)c2N)[C@H](O)[C@@H]1O [Compound No. 54 (1-483), 5-Amino-1-(5-deoxy-5-methylthio-β-D-ribofuranosyl)imidazole-4-carboxamide]	28	–	–	–
Nc1c(C(=O)NCc2ccc(Br)cc2)ncn1C1OC(CO)C(O)C1O [Compound No. 56 (1-487), 5-Amino 1-β-D-ribofuranosyl-imidazole-4-N-[(4-bromophenyl)methyl]carboxamide]	32	55 ± 7	65 ± 9	IC50 ([4]; Homo sapiens, Platelet, 10 min): 75 µM
Nc1c(C(=O)Nc2ccc([N+](=O)[O-])cc2)ncn1C1OC(CO)C(O)C1O [Compound No. 58 (1-489), 5-Amino-1-β-D-ribofuranosylimidazole-4-N-(4-nitrophenyl)carboxamide]	80	–	–	–
Nc1c(C(=O)NCCc2ccc([N+](=O)[O-])cc2)ncn1C1OC(CO)C(O)C1O [Compound No. 59 (1-506), 5-Amino-1-β-D-ribofuranosyl-imidazole-4-N→2-(4-nitrophenyl)ethyl carboxamide]	2	–	–	IC50 ([4]; Homo sapiens, Platelet, 10 min): 70 µM
C[C@H]1O[C@@H](n2cnc(C(=O)NCc3ccc(Cl)cc3)c2N)[C@H](O)[C@@H]1O [Compound No. 61 (1-509), 5-Amino-1-(5-deoxy-β-D-ribofuranosyl)imidazole-4N-[(4-chlorophenyl)methyl]carboxamide]	32	–	–	IC50 [4]: 171 µM; Inhibition of Adenosine Utilization (%) ([3]; 5 μM): 37 ± 28%; Inhibition of Adenosine Utilization (%) ([3]; 50 μM): 72 ± 5%
[N-]=[N+]=NC[C@H]1O[C@@H](n2cnc(C(=O)NCc3ccc([N+](=O)[O-])cc3)c2N)[C@H](O)[C@@H]1O [Compound No. 71 (1-562)]	–	–	–	IC50 [4]: 40 µM; Inhibition of Adenosine Utilization (%) ([3]; 5 μM): 10 ± 3%; Inhibition of Adenosine Utilization (%) ([3]; 50 μM): 31 ± 11%
NC[C@H]1O[C@@H](n2cnc(C(=O)NCc3ccc([N+](=O)[O-])cc3)c2N)[C@H](O)[C@@H]1O [Compound No. 72 (1-563)]	–	–	–	IC50 [4]: 300 µM
Nc1c(C(=O)NCCCc2ccc([N+](=O)[O-])cc2)ncn1[C@@H]1O[C@H](CO)[C@@H](O)[C@H]1O [Compound No. 73 (1-566)]	–	–	–	Inhibition of Adenosine Utilization (%) ([3]; 5 μM): 16 ± 0%; Inhibition of Adenosine Utilization (%) ([3]; 50 μM): 33 ± 9%
Nc1c(C(=O)NCc2ccc(S(N)(=O)=O)cc2)ncn1[C@@H]1O[C@H](CO)[C@@H](O)[C@H]1O [Compound No. 75 (1-577), 5-Amino-1-β-D-ribofuranosylimidazole-4-N-[(4-sulfamoylphenyl)methyl]carboxamide]	–	–	–	Inhibition of Adenosine Utilization (%) ([3]; 5 μM): 8 ± 0%; Inhibition of Adenosine Utilization (%) ([3]; 50 μM): 30 ± 3%
